Measured values from patent publication US20260176289A1, “SMALL MOLECULE INHIBITORS OF KRAS PROTEINS” (Merck Sharp & Dohme LLC, priority 2022, published 2026).
Like-named read-outs stand apart in the source and are kept apart here.

Legend:
SW620 cells = test: Cellular phospho-ERK assay, SW620 cells (homozygous KRAS-G12V); assay type: cell-based; conditions: Homo sapiens, read-out: SW620 pERK IC50
Method in brief: (§1)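 ERK phosphorylation relative to total ERK is the endpoint, detected by AlphaScreen-based SureFire multiplex following a 2-hour treatment at 37 °C. Compounds are titrated 1:3 over ten points from 30 μM.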

[1] = target: KRAS-G12C (C51S/C80L/C118S) (Homo sapiens, UniProt P01116, C118S/C51S/C80L/G12C); test: SOS-catalyzed nucleotide exchange assay (Procedure A, TR-FRET), KRAS-G12C; assay type: biochemical; conditions: nucleotide exchange, Procedure A; read-out: KRAS G12C GNE IC50
Method in brief: (§2)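 TR-FRET readout (520/495 nm) of SOS-driven exchange of Bodipy-GDP for unlabeled GTP (3 mM) on biotinylated, Tb-streptavidin-bound RAS, after 60 min compound preincubation at room temperature. Exchange times and RAS/SOS levels: 60 min for WT (1/40 nM), G12C triple mutant (3/40 nM), NRAS (1.25/40 nM); 90 min for G12V (1.25/160 nM). Four-parameter logistic fits on normalized effect.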

KRAS-G12D = KRAS-G12D (Homo sapiens, UniProt P01116, G12D); test: SOS-catalyzed nucleotide exchange assay (Procedure A, TR-FRET), KRAS-G12D; assay type: biochemical; conditions: nucleotide exchange, read-out: KRAS G12D GNE IC50
Method in brief: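 Signal ratio (520/495 nm, excitation 340 nm) reports Bodipy-GDP retention on biotinylated RAS after SOS-catalyzed exchange with 3 mM GTP. SOS was 40 nM, except 160 nM for G12V. Room-temperature exchange lasted 60 min (90 min for G12V), following a 60 min compound preincubation.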

AsPC-1 cells = test: Cellular phospho-ERK assay, AsPC-1 cells (homozygous KRAS-G12D); assay type: cell-based; conditions: Homo sapiens, ASPC1, 2 h, read-out: AsPC1 pERK IC50
Method in brief: as §1

KRAS-G13D = KRAS-G13D (Homo sapiens, UniProt P01116, G13D); test: SOS-catalyzed nucleotide exchange assay (Procedure A, TR-FRET), KRAS-G13D; assay type: biochemical; conditions: nucleotide exchange, Procedure A; read-out: KRAS G13D GNE IC50
KRAS-WT = KRAS-WT (Homo sapiens, UniProt P01116); test: SOS-catalyzed nucleotide exchange assay (Procedure A, TR-FRET), KRAS-WT; assay type: biochemical; conditions: nucleotide exchange, read-out: KRAS WT GNE IC50
Method in brief: as §2

HRAS = HRAS (Homo sapiens, UniProt P01112); test: SOS-catalyzed nucleotide exchange assay (Procedure A, TR-FRET), HRAS; assay type: biochemical; conditions: read-out: HRAS GNE IC50
From the text: Procedure for SOS-Catalyzed Nucleotide Exchange Assay for KRAS-WT, G12C/D/V, G13D, HRAS, and NRAS (Procedure A)
Recombinant KRAS-G12C protein used in this assay has an additional triple mutation (C51S/C80L/C118S). Whereas KRAS-WT, G12D/V, G13D, HRAS and NRAS are in context of their WT protein sequence background. Specifically, the SOS-catalyzed nucleotide exchange assay utilizes a preformed TR-FRET complex containing a specific biotinylated RAS protein (KRAS-WT, G12C/V/D, G13D, HRAS, NRAS; described above) with Bodipy-GDP, and Terbium-streptavidin. Compounds are preincubated with this complex for 60 minutes. Subsequently, recombinant human SOS protein and unlabeled GTP are added to initiate the exchange reaction. Small molecule inhibitors stabilize the Bodipy-GDP complex whereas the untreated protein rapidly exchanges Bodipy-GDP for unlabeled GTP resulting in reduced TR-FRET signal.
To assemble the preformed TR-FRET complexes, each biotinylated RAS protein is diluted to 2 μM in an EDTA Buffer (20 mM HEPES pH 7.5, 50 mM sodium chloride, 10 mM EDTA, and 0.01% Tween) and incubated at room temperature for one hour. This mixture is then further diluted to 90 nM in an Assay Buffer (20 mM HEPES pH 7.5, 150 mM sodium chloride, 10 mM magnesium chloride, and 0.005% Tween) containing 15 nM of Terbium-Streptavidin (Invitrogen, catalog #PV3577) and 900 nM of Bodipy-GDP (Invitrogen, catalog #G22360) and incubated at room temperature for six hours. It should be noted that this preformed TR-FRET complex for each of the RAS protein were made ahead of time, aliquoted and stored at −80° C. until the day of the experiment.
Each test compound (10 mM stock in DMSO) is diluted in DMSO to make a final-10-point, 3-fold dilution and is acoustically dispensed into a 384-well assay plate (Corning, catalog #3820) using an Echo 550 (Labcyte). Each well of the assay plate receives 3 μL of a specific 3×RAS preformed TR-FRET complex and 3 μL of Assay Buffer and is incubated at room temperature for 60 minutes (preincubation time). Each well then receives 3 μL of 3×recombinant human SOS protein and GTP (Sigma, G8877) in Assay Buffer and is incubated at room temperature for 30 minutes (G13D), 60 minutes (KRAS WT/G12C/D, H/NRAS) or 90 minutes for G12V. The final reaction in each well of 9 μL consists of 3 mM GTP, specific Ras and SOS proteins in the following concentrations: KRAS-G12C/SOS=3 nM/40 nM, KRAS-WT and G12D/SOS=1 nM/40 nM, KRAS-G12V/SOS=1.25 nM/160 nM. KRAS-G13D/SOS=1.25 nM/0 nM, HRAS and NRAS=1.25 nM/40 nM.
The time-resolved fluorescence resonance energy transfer (TR-FRET) signal is measured on an Envision (PerkinElmer) plate reader: Excitation filter=340 nm; emission 1=495 nm; emission2=520 nm; dichroic mirror=D400/D505; delay time=[…]. The signal of each well is determined as the ratio of the emission at 520 nm to that at 495 nm. Percent effect of each well is determined after normalization to control wells containing DMSO (no effect) or a saturating concentration of inhibitor (max effect). The apparent effect as a function of compound concentration is fit to a four-parameter logistic equation.

MKN-1 cells = test: Cellular phospho-ERK assay, MKN-1 cells (amplified wild-type KRAS); assay type: cell-based; conditions: Homo sapiens, read-out: MKN1 pERK IC50
Method in brief: as §1

KRAS-G12V = KRAS-G12V (Homo sapiens, UniProt P01116, G12V); test: SOS-catalyzed nucleotide exchange assay (Procedure A, TR-FRET), KRAS-G12V; assay type: biochemical; conditions: nucleotide exchange, read-out: KRAS G12V GNE IC50
Method in brief: as §2

[2] = SW-620, 2 hours compound incubation

KRAS-G12V, sequence (P01116 with tags, fused parts or gaps isoform P01116-2 G12V): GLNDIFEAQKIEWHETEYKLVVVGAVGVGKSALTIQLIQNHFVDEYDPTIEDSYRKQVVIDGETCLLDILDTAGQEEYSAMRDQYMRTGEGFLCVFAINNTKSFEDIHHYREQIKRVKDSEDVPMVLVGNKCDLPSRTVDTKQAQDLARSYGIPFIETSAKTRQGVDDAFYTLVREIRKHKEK
KRAS-G12D, sequence (P01116 with tags, fused parts or gaps isoform P01116-2 G12D): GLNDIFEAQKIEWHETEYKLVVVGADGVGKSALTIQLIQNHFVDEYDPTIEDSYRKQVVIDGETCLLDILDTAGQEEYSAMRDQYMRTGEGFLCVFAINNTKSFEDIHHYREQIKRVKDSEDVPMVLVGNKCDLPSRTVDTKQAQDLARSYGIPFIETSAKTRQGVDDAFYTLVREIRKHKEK
KRAS-G13D, sequence (P01116 with tags, fused parts or gaps isoform P01116-2 G13D): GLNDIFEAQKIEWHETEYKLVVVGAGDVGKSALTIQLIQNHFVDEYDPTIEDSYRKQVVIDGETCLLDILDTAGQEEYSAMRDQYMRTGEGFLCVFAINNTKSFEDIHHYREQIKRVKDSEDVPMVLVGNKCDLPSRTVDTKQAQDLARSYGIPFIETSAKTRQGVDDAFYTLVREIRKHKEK
HRAS, sequence (P01112 with tags, fused parts or gaps): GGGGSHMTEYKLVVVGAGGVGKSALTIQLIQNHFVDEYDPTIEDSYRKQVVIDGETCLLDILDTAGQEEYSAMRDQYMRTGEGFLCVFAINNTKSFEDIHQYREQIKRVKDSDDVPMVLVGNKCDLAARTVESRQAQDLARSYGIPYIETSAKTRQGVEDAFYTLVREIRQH
KRAS-G12C (C51S/C80L/C118S), sequence (P01116 with tags, fused parts or gaps isoform P01116-2 G12C/C51S/C80L/C118S): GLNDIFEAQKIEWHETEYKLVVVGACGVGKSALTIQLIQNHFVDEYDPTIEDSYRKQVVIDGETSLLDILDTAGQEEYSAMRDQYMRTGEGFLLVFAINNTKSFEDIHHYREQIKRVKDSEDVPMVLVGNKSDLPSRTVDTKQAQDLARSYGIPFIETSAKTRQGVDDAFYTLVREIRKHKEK
KRAS-WT, sequence (P01116 with tags, fused parts or gaps isoform P01116-2): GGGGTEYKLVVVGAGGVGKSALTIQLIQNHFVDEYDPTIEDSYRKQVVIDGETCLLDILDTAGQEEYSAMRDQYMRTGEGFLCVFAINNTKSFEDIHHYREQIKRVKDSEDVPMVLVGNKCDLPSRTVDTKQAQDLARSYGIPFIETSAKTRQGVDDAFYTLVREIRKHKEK

| SMILES | IC50 (SW620 cells; [2]) [nM] | IC50 [1] [nM] | IC50 (KRAS-G12D) [nM] | IC50 (AsPC-1 cells; 2 hours compound incubation) [nM] | IC50 (KRAS-G13D) [nM] | IC50 (KRAS-WT) [nM] | IC50 (HRAS) [nM] | IC50 (MKN-1 cells; 2 hours compound incubation) [nM] | IC50 (KRAS-G12V) [nM] | IC50 (SW620 cells; SW-620, KRAS-G12V, 2 hours) [nM] | IC50 (AsPC-1 cells; KRAS-G12D, 2 hours) [nM] | IC50 (MKN-1 cells; amplified wild-type KRAS, 2 hours) [nM] |
| --- | --- | --- | --- | --- | --- | --- | --- | --- | --- | --- | --- | --- |
| CN1CCC[C@@]2(COc3nc(N4CCOC[C@@](C)(O)C4)c4c(n3)sc3c(-c5c(C6CC6)c(C(F)(F)F)cc6[nH]ncc56)nccc34)CCC[C@@H]12 [Ex-205, (6S)-4-(8-(5-cyclopropyl-6-(trifluoromethyl)-1H-indazol-4-yl)-2-(((4aS,7aR)-1-methyloctahydro-4aH-cyclopenta[b]pyridin-4a-yl)methoxy)pyrido[4′,3′:4,5]thieno[2,3-d]pyrimidin-4-yl)-6-methyl-1,4-oxazepan-6-ol] | 15.1 | 40.1 | 1.69 | 22.3 | 10.7 | 3.94 | 5090 | 17 | 4.42 | – | – | – |
| C#Cc1c(F)ccc2cc3[nH]ncc3c(-c3nccc4c3sc3nc(OC[C@@]56CCCN5C[C@H](F)C6)nc(N5CCOC[C@@](C)(O)C5)c34)c12 [Ex-160, (6S)-4-(8-(5-ethynyl-6-fluoro-1H-benzo[f]indazol-4-yl)-2-(((2R,7aS)-2-fluorotetrahydro-1H-pyrrolizin-7a(5H)-yl)methoxy)pyrido[4′,3′:4,5]thieno[2,3-d]pyrimidin-4-yl)-6-methyl-1,4-oxazepan-6-ol] | 7.87 | 53.2 | 2.43 | 18.9 | 4.55 | 4.41 | 5540 | 19.9 | 5.25 | – | – | – |
| CC1CCc2cc3[nH]ncc3c(-c3nccc4c3sc3nc(OC[C@@]56CCCN5C[C@H](F)C6)nc(N5CCOC[C@@](C)(O)C5)c34)c21 (single isomer, unassigned) [Ex-103] | – | 18.1 | 2.12 | – | 4.51 | 6.28 | 8010 | – | 8.72 | 19.9 | 26.3 | 30.9 |
| C[C@@]1(O)COCCN(c2nc(OC[C@@]34CCCN3C/C(=C\F)C4)nc3sc4c(-c5c(C6(F)CC6)c(Cl)cc6[nH]ncc56)nccc4c23)C1 [Ex-267, (6S)-4-(8-(6-chloro-5-(1-fluorocyclopropyl)-1H-indazol-4-yl)-2-(((S,Z)-2-(fluoromethylene)tetrahydro-1H-pyrrolizin-7a(5H)-yl)methoxy)pyrido[4′,3′:4,5]thieno[2,3-d]pyrimidin-4-yl)-6-methyl-1,4-oxazepan-6-ol] | 24 | 23.5 | 3.26 | 23.6 | 9.94 | 5.56 | 4250 | 18.7 | 8.11 | – | – | – |
| COC1(C)CN(C[C@@]2(COc3nc(N4CCOC[C@@](C)(O)C4)c4c(n3)sc3c(-c5c(C6(F)CC6)c(Cl)cc6[nH]ncc56)nccc34)CC2(F)F)C1 [Ex-240, (6S)-4-(8-(6-chloro-5-(1-fluorocyclopropyl)-1H-indazol-4-yl)-2-(((R)-2,2-difluoro-1-((3-methoxy-3-methylazetidin-1-yl)methyl)cyclopropyl)metho-xy)pyrido[4′,3′:4,5]thieno[2,3-d]pyrimidin-4-yl)-6-methyl-1,4-oxazepan-6-ol] | 36.1 | 19.4 | 4.31 | 58.8 | 45.8 | 20 | 2220 | 39.3 | 10.4 | – | – | – |
| C[C@H](N(C)C)[C@@]1(COc2nc(N3CCOC[C@@](C)(O)C3)c3c(n2)sc2c(-c4c(C5CC5)c(Cl)cc5[nH]ncc45)nccc23)CC1(F)F [Ex-215, (6S)-4-(8-(6-chloro-5-cyclopropyl-1H-indazol-4-yl)-2-(((R)-1-((S)-1-(dimethylamino)-ethyl)-2,2-difluoro-cyclopropyl)meth-oxy)pyrido[4′,3′: 4,5]thieno[2,3-d]pyrimidin-4-yl)-6-methyl-1,4-oxaze-pan-6-ol] | 23 | 105 | 3.75 | 55.9 | 38.9 | 16 | 1610 | 32.6 | 20.9 | – | – | – |

More lines, in order of falling IC50 [1], values ahead:

| IC50 (SW620 cells; [2]) [nM] | IC50 [1] [nM] | IC50 (KRAS-G12D) [nM] | IC50 (AsPC-1 cells; 2 hours compound incubation) [nM] | IC50 (KRAS-G13D) [nM] | IC50 (KRAS-WT) [nM] | IC50 (HRAS) [nM] | IC50 (MKN-1 cells; 2 hours compound incubation) [nM] | IC50 (KRAS-G12V) [nM] | SMILES | IC50 (SW620 cells; SW-620, KRAS-G12V, 2 hours) [nM] | IC50 (AsPC-1 cells; KRAS-G12D, 2 hours) [nM] | IC50 (MKN-1 cells; amplified wild-type KRAS, 2 hours) [nM] |
| --- | --- | --- | --- | --- | --- | --- | --- | --- | --- | --- | --- | --- |
| 23.2 | 21.1 | 16 | 51.5 | 13.9 | 88.5 | 1640 | 52.7 | 70.1 | C[C@@]1(O)COCCN(c2nc(OC[C@]3(CN4CC5(CC(F)C5)C4)CC3(F)F)nc3sc4c(-c5c(C6CC6)c(Cl)cc6[nH]ncc56)nccc4c23)C1 [Ex-230] | – | – | – |
| – | 20.3 | 2.87 | 25.7 | 15 | 8.55 | 492 | – | 8.77 | [2H]C([2H])([2H])N(C[C@@]1(COc2nc(N3CCOC[C@@](C)(O)C3)c3c(n2)sc2c(-c4c(C5(F)CC5)c(Cl)cc5[nH]ncc45)nccc23)CC1(F)F)C([2H])([2H])[2H] [Ex-231] | – | – | – |
| 49.6 | 15.2 | 4.1 | 57.6 | 18.4 | 20.1 | 1060 | 49.7 | 15.9 | C[C@H]1CCN1C[C@@]1(COc2nc(N3CCOC[C@@](C)(O)C3)c3c(n2)sc2c(-c4c(C5(F)CC5)c(Cl)cc5[nH]ncc45)nccc23)CC1(F)F [Ex-253, (6S)-4-(8-(6-chloro-5-(1-fluorocyclopropyl)-1H-indazol-4-yl)-2-(((R)-2,2-difluoro-1-(((S)-2-methylazetidin-1-yl)methyl)cyclopropyl)metho-xy)pyrido[4′,3′:4,5]thieno[2,3-d]pyrimidin-4-yl)-6-methyl-1,4-oxazepan-6-ol] | – | – | – |
